Legend:
[1] = tested on: patient suffering from reactive hypoglycemia; experiment: Treatment of reactive hypoglycemia; assay type: in vivo, human; settings: long-acting controlled release formulation; for IGF-2 levels: serum
Method: A patient suffering from reactive hypoglycemia has a serum sample evaluated for IGF-1 and IGF-2 levels. IGF-1 levels are normal but IGF-2 levels are more than two standard deviations below the expected levels for a person of the same age, sex and body weight. The patient is treated by administering IGF-2 or 22K-GH in a long-acting controlled release formulation.

[2] = tested on: IGF-1 and IGF-2; settings: cited from earlier work
[3] = molecular target: bp3 (Homo sapiens, UniProt P17936); settings: cited from earlier work
bp3, sequence (P17936 28-291): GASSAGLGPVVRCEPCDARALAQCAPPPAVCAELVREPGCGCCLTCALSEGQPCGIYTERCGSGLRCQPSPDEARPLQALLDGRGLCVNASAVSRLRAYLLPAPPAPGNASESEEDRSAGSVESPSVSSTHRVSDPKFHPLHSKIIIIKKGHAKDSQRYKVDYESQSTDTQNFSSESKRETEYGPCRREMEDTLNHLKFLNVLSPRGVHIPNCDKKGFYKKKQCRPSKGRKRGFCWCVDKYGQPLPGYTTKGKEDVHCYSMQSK

In the case of “22K-GH: the larger human growth hormone isoform”, the hypoglycemic episodes [1] is listed as “less frequent”, the IGF-2 levels [1] is listed as “increased” and the “effects on the synthesis and secretion of IGFs” value [2] is listed as “stimulate both IGF-1 and IGF-2”.

In the case of “IGF-1: IGF polypeptide in serum that binds bp3”, the “affinity to bp3” value [3] is given as “equal affinity”.

For “IGF-2: IGF polypeptide; competes with insulin for binding to the insulin receptor”, the hypoglycemic episodes [1] is listed as “less frequent”, the IGF-2 levels [1] is listed as “increased” and the “affinity to bp3” value [3] is listed as “equal affinity”.

Source: patent US20020165127A1, “Methods for treating insulin resistance and identifying patients at risk for the disease” (SuperGen, Inc., priority 1996, published 2002)
